Assay results taken from patent US6221870A, “Ergoline derivatives and their use as somatostatin receptor antagonists” (Novartis AG, priority 1997, dated 2001).

What was measured:
[1] = molecular target: T1, native rat sst1 receptors (Rattus norvegicus, UniProt P28646); assay: affinity for native rat sst1 receptors (radioligand binding); details: read-out: pIC50, affinity for native rat sst1 receptors (converted)
T1 construct: native rat sst1 receptors
Description: (§1) In particular the agents of the invention bind to somatostatin receptors. More particularly they are selective antagonists at Somatostatin sst1 receptors, previously called SSTR-1 receptors (see Hoyer et al., TIPS, 1995, 16; 86-88), as determined in radioligand binding and second messenger studies [see for example K Kaupmann et al., FEBS LETTERS 1993, 331: 53-59].
(§2) For all above indications the preferred compound is the compound of example 1 below.

[2] = molecular target: T2, recombinant human sst1 receptors (Homo sapiens, UniProt P30872); assay: affinity for recombinant human sst1 receptors (radioligand binding); details: read-out: pIC50, affinity for recombinant human sst1 receptors (converted)
T2 construct: expressed in transfected cells
Description: as §1, §2

mice = assay: Matched Pairs Situation test in mice; assay type: in vivo, mouse; details: for lowering of aggressive behavior (Matched Pairs Situation test), standard drugs: 3-30 mg/kg s.c.; for potency compared with the compound of example 1, Matched Pairs Situation test: standard drugs at 3-30 mg/kg s.c.
[3] = molecular target: T3, native human sst1 receptors (Homo sapiens, UniProt P30872); assay: affinity for native human sst1 receptors (radioligand binding); details: read-out: pIC50, affinity for native human sst1 receptors (converted)
T3 construct: native and recombinant human sst1 receptors
Description: as §1, §2

[4] = system: neurotransmitter receptors; assay: activity for a wide range of neurotransmitter receptors; assay type: binding
Description: as §2

intruder mouse = intruder mouse test; assay type: in vivo; details: for potency compared with the compound of example 1, intruder mouse test: standard drugs at 3-30 mg/kg s.c.
[5] = known drawback; cited from earlier work

T1 sequence (P28646 whole entry): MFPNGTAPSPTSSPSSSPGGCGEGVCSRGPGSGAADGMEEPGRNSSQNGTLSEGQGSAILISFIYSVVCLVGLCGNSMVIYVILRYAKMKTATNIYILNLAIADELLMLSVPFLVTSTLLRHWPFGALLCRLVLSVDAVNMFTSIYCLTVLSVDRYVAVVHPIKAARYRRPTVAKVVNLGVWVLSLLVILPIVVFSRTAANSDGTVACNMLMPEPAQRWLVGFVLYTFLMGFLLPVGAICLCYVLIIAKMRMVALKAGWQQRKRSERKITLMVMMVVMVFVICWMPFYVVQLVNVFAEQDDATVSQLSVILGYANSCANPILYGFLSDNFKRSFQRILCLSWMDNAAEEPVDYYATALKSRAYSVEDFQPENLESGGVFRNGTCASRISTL
T2 sequence (P30872 whole entry): as the sequence (P28646 whole entry) above, with P8S, T11S, S16P, G20S, V25G, C26G, S32A, S45A, A385T, S389T counted along it
T3 sequence (P30872 whole entry): as the sequence (P28646 whole entry) above, with P8S, T11S, S16P, G20S, V25G, C26G, S32A, S45A, A385T, S389T counted along it

| Molecule | IC50 [1] [nM] | IC50 [2] [nM] | aggressive behavior in the Matched Pairs Situation test (mice; 3-30 mg/kg p.o.) | IC50 [3] [nM] | activity for a wide range of neurotransmitter receptors [4] | social withdrawal in the intruder mouse test (intruder mouse; 3-30 mg/kg p.o.) | lowering of aggressive behavior (Matched Pairs Situation test), standard drugs (mice) | potency compared with the compound of example 1, Matched Pairs Situation test (mice) | potency compared with the compound of example 1, intruder mouse test (intruder mouse) | therapeutic window [5] |
| --- | --- | --- | --- | --- | --- | --- | --- | --- | --- | --- |
| CN1C[C@H](C(=O)N2CCN(c3cccc(=O)n3C)CC2)C[C@@H]2c3cccc4[nH]c(Br)c(c34)C[C@H]21 [Example 1, [5R, 8R, 10R]-2-Bromo-9,10-dihydro-lysergic-acid-4-(1-methyl-1H-pyrid-6-on-2-yl)-piperazine-amide] | 0.2 | 1.58 | clearly lowers aggressive behavior | 1 | without significant activity | reverses social withdrawal |  |  |  |  |
| NC(=O)N1c2ccccc2C=Cc2ccccc21 [carbamazepine] |  |  |  |  |  |  | These effects are also observed | less potent | less potent | narrow therapeutic window |
| lithium |  |  |  |  |  |  | These effects are also observed | less potent | less potent | narrow therapeutic window |
